“Also recorded” adds a separate entry of the source. Where two headings read alike, the source gives them in different places. Positions of bridges follow the written chain, without caps; N, C: chain ends. No end group written: not given here.
Legend:
[1] = test system: ERG potassium channels (hERG1); settings: ref [22],[46]; cited from earlier work
Description: Scorpion venom is a mixture of proteins, peptides and enzymes, carbohydrates, free amines, nucleotides, lipids, and other low molecular weight components with unknown function. Peptides that act as ion channel modulators are the main agents responsible for the venom toxicity and they have been classified according to their targets into: sodium scorpion toxins (NaScTx), with molecular masses between 6–8 kDa, potassium scorpion toxins (KScTx), with molecular masses between 3–5 kDa, and calcium scorpion toxins (CaScTx) that comprise peptides acting on voltage gated calcium channel ... || The effect of the CmERG1 toxin was evaluated on the hERG1 channel by means of electrophysiology experiments. […] Dose response curves were calculated by application of toxin concentrations from 1 nM to 1 µM. […] This feature is different from the other γKTxs, like CnERG1, ... || Two models were proposed to explain the uncommon feature of the γKTxs that comprises a partial current block, despite the saturation concentration, and the acceleration of the closing process due to the toxin preference for the channel closed state. In one kinetic model proposed by Hill and collaborators, first the toxin binds to the channel in a toxin channel encounter complex permissive to ion flow (TC*) and then passes to the blocked toxin-channel complex (TC). […]

hERG1 channel [2] = target: T1, hERG1 channel (Homo sapiens, UniProt Q12809); experiment: Patch-clamp electrophysiology, block of hERG1 tail currents (dose-response) in CHO cells stably expressing hERG1; format: cell-based; settings: for activity on hERG1 channels, in words (venom fraction screening / purified peptide): electrophysiology screening
T1 construct: expressed in transfected cells
T1 sequence (Q12809 whole entry): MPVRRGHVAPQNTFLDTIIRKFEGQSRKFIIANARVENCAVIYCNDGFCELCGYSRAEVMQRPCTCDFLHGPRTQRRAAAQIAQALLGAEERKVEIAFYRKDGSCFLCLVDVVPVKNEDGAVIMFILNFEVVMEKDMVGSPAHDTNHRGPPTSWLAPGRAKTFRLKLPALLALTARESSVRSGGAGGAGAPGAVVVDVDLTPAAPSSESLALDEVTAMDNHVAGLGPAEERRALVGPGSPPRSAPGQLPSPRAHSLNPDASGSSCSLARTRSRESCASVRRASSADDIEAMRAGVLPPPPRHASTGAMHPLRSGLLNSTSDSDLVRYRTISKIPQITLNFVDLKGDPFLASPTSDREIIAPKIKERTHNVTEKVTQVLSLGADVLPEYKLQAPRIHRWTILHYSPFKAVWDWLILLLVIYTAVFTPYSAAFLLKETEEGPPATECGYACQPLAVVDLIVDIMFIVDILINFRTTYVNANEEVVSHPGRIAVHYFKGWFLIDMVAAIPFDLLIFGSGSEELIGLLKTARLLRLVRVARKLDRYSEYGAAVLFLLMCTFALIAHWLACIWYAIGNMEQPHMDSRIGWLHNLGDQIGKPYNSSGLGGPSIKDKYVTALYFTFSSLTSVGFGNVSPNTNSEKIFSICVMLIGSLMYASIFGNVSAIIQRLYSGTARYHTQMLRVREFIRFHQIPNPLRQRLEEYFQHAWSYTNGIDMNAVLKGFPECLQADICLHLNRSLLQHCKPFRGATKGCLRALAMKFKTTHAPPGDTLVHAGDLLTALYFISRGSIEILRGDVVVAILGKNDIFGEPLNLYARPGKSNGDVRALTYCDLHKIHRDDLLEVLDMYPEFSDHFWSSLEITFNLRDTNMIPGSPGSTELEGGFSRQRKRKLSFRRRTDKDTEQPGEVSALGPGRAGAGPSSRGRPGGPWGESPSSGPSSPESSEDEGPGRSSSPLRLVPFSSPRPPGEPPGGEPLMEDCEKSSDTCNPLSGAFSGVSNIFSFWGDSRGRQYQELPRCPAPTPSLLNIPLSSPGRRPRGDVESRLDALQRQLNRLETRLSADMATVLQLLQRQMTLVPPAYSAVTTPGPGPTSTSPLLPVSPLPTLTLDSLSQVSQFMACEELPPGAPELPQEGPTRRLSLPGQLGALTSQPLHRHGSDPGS
Method: CHO cells stably expressing hERG1 potassium channels were used for the electrophysiological experiments (hERG1 accession number: NP_000229). We previously prepared this cell line stably transfecting CHO cells with plasmid pcDNA3.1-hERG1 (a kind gift from Enzo Wanke from University of Milano-Bicocca, Italy). Briefly: CHO cells at 80% confluence in a 35 mm culture plate were transfected with 2 µg of pcDNA3.1-hERG1 mixed with 7 uL of Lipofectamine (Invitrogen), accordingly to the manufacturer instructions. After 3 days, cells were selected by adding to the culture medium 2 mg/mL of G418 (SIGMA). After 10 days of selection, cells were cloned by limiting dilution and the resulting clones were probed for their current expression by electrophysiological recordings. High glucose DMEM (Dulbecco’s Modified Eagle Medium, SIGMA, Naucalpan de Juarez, Edo de Mexico, Mexico), supplemented with 10% Fetal Bovine Serum (Biotecfron, Emiliano Zapata, Morelos, Mexico) and with 500 µg/mL of antibiotic G418 (SIGMA) was used as growth medium. Cells were routinely maintained at 37 °C with 5% of CO2 in humidified atmosphere.
Intracellular solution contained in mM: 130 K-Aspartate, 10 NaCl, 2 MgCl2, 10 HEPES, 10 EGTA, pH 7.3 adjusted with NaOH. Extracellular solution contained in mM: 95 NaCl, 40 KCl, 2 CaCl2, 2 MgCl2, 10 HEPES, 5 glucose, pH 7.3 adjusted with NaOH. A concentrated 100–1000× stock was prepared dissolving lyophilized toxin in distilled water and stored at −20 °C until the used (no more than 3 weeks). Solutions were delivered to the cell under patch by means of an active perfusion system connected to a variable speed syringe pump (model A-99 from Razel Scientific Instruments (Saint Albans VT, USA)). The perfusion rate was approximately 1µL/s.
Patch pipettes were manufactured from capillary borosilicate glass tubing (Warner Instruments, Hamden, CT, USA) by means of a vertical puller model P-30 (Sutter Instrument, Novato, CA, USA). When pipettes were filled with internal solution, pipette resistance was between 1.5–3 MOhm.
During the depolarizing steps, hERG1 currents are usually small (Figure S1). This is a consequence of the slow activation kinetics (in seconds) and the very fast inactivation kinetics (in milliseconds) of this channel that can be considered an inward rectifier. Therefore, it is a common practice to record the tail currents during the hyperpolarization, where the inactivation is quickly removed and the deactivation occurs slowly. For the dose response curve (Figure 3), tail currents of hERG1 were recorded at −120 mV for 500 ms, after a preconditioning pulse at 60 mV for 500 ms every 5 s. Peak currents recorded in absence and in presence of the toxin were normalized to the maximal peak current in control condition and plotted versus the logarithm of toxin concentration. Data were fitted by a logistic equation. For the voltage dependence of activation study, hERG1 tail currents were recorded during a step at −120 mV for 500 ms, preceded by a 5 s depolarization steps in the range between 30 to −80 mV. To determine the voltage dependence of inactivation, currents were recorded after a depolarization at 40 mV for 1 s, during depolarization steps in the range between 40 to −170 mV. Currents recorded at potentials lower than −90 mV were corrected for deactivation: the deactivation process was fitted by a single exponential extrapolated to the zero point of each step. Data from both activation and inactivation protocols, in absence and in presence of the toxin, were normalized, plotted versus membrane potential, and fitted by a Boltzmann function.
Currents were acquired by using MultiClamp 700A amplifier and DigiData 1440a (Molecular Devices, San Jose, CA, USA). Off-line analysis and graphs were performed by using Clampfit 10 (Molecular Devices) and Origin 8 (OriginLab, Northampton MA, USA).
Where it is not otherwise indicated, electrophysiological data represent the mean of 3–6 cells ± standard error (S.E.). […]

hERG1 channel [3] = target: T1, hERG1 channel; experiment: Patch-clamp, voltage dependence of (steady state) inactivation of hERG1; format: cell-based; settings: 4 nM, n = 5
Method: Figure 4 Effect of CmERG1 at 4 nM on the voltage dependence of activation and inactivation. (A) Stimulation protocol used to study the voltage dependence of activation. Tail currents were elicited by 5 s preconditioning steps ranging from +30 to −80 mV, followed by a 500 ms pulse at −120 mV. (B,C) typical example of tail currents recorded in control conditions and during application of CmERG1, respectively. (D) Voltage dependence of activation. Normalized peak currents are plotted against the voltage of the preconditioning pulses in control conditions (black squares) and in the presence of 4 nM CmERG1 (grey squares). Black lines are the best fit obtained to a Boltzmann equation giving V1/2 for activation of −37.5 ± 1.4 mV and −34.8 ± 0.8 mV and slope of 6.0 ± 0.3 and 8 ± 0.7 for the control and in the presence of 4 nM CmERG1, respectively (mean ± SE and n = 5, analyzed by paired sample t-test at 0.05 level). (E) Stimulation used to study the voltage dependence of inactivation. Currents were elicited by a 1 s preconditioning pulse at 40 mV followed by depolarization steps ranging from −170 mV to 40 mV. Currents recorded at potentials lower than −90 mV were corrected for deactivation as shown in the inset of panel (F). The deactivation process was fitted by a single exponential (grey dash line) extrapolated to the zero point of the depolarization step, indicated by the arrow. (F,G) typical example of currents recorded in control conditions and in presence of 4 nM CmERG1 respectively. (H) Voltage dependence of inactivation. […] Black lines are the best fit obtained by a Boltzmann equation giving V1/2 for inactivation of −77.6 ± 3.6 mV and −79 ± 1.3 mV and slope of 28.2 ± 2.2 and 29 ± 1.5 for control conditions and in presence of 4 nM CmERG1, respectively (mean ± SE and n = 5, analyzed by paired sample t-test at 0.05 level).
For steady state inactivation, tail currents were recorded during 500 ms depolarization steps from −170 to 40 mV, after a depolarization at 40 mV for 1 s (Figure 4E). Figure 4F,G show an example of currents recorded in the absence and in the presence of toxin. […]

hERG1 channel [4] = target: T1, hERG1 channel; experiment: Patch-clamp, voltage dependence of activation of hERG1; format: cell-based; settings: 4 nM
Method: To understand better the activity of CmERG1 on hERG1, we analyzed the voltage dependence of the activation and inactivation processes in presence or absence of CmERG1 at 4 nM, a concentration close to the IC50. For the activation, tail currents were elicited at −120 mV after 5 s preconditioning pulses from 30 to −80 mV (Figure 4A). Figure 4B,C illustrates typical currents recorded in the absence and in the presence of CmERG1. Tail currents were normalized, plotted versus preconditioning potentials, and fitted to a Boltzmann equation (Figure 4D). […]
Figure 4 Effect of CmERG1 at 4 nM on the voltage dependence of activation and inactivation. […] (B,C) typical example of tail currents recorded in control conditions and during application of CmERG1, respectively. […] Black lines are the best fit obtained to a Boltzmann equation giving V1/2 for activation of −37.5 ± 1.4 mV and −34.8 ± 0.8 mV and slope of 6.0 ± 0.3 and 8 ± 0.7 for the control and in the presence of 4 nM CmERG1, respectively (mean ± SE and n = 5, analyzed by paired sample t-test at 0.05 level). […] Currents recorded at potentials lower than −90 mV were corrected for deactivation as shown in the inset of panel (F). […] (F,G) typical example of currents recorded in control conditions and in presence of 4 nM CmERG1 respectively. […]

Kv1.3 channel = settings: human peripheral T lymphocytes, ref [30] (ref [30],[31]), cited from earlier work
Description: (§1) Until now, little is known about the C. margaritatus venom composition. […] Thereafter, in a proteomics study of C. margaritatus venom, two other peptides were isolated and characterized: a peptide with 24 amino acids and 3 disulfide bridges (MW = 2609.15 Da) and a peptide with 30 amino acids and 3 disulfide bridges (MW = 3376 Da), both cla ... || Despite the fact that the C. margaritatus scorpion belongs to the Buthidae […], its venom has been considered of low toxicity, but as mentioned above, in Colombia this species has caused a few cases of moderate and severe scorpionism.

Kv1.1 channel = settings: affinity compared with Kv1.3; ref [31] (ref [30],[31]); cited from earlier work
Description: as §1

Kv1.2 channel = settings: affinity compared with Kv1.3; ref [31] (ref [30],[31]); cited from earlier work
Description: as §1

BeKm-1
state dependence of channel-toxin interaction [1]: toxin binds preferentially to the closed channels while inactivation promotes toxin unbinding

DRDSCVDKSRCAKYGYFQECTDCCKKYGHNGGTCMFFKCKCA (disulfide 5-23, 11-34, 20-39, 24-41) [CmERG1]
slope of dose-response curve (logistic equation) (hERG1 channel [2]; CHO cells stably expressing hERG1, 1 nM to 1 µM, tail currents at −120 mV): 1.1 ± 0.05
IC50 (hERG1 channel [2]; CHO cells stably expressing hERG1, tail currents at −120 mV after preconditioning at 60 mV for 500 ms every 5 s, 1 nM to 1 µM, logistic fit, mean ± S.E., n = 3-6 cells per concentration, read-out: IC50, inhibition of hERG1 currents): 3.4 ± 0.2 nM
onset and reversibility of block (hERG1 channel [2]; CHO-hERG1 patch clamp, application at 1 µM and washout, pulses every 5 s): blocks channels in a fast and reversible manner
block of hERG1 current, in words (hERG1 channel [2]; CHO-hERG1 patch clamp, highest concentration 1 µM (n = 3)): completely blocks hERG1 current; also recorded: able to almost completely block the channels; also recorded: full blocking
block of hERG1 current (hERG1 channel [2]; CHO-hERG1 patch clamp, maximal block): 100%
effect on kinetics of the closing (deactivation) process (hERG1 channel [2]; CHO-hERG1 patch clamp, representative currents at 300 nM and 3 nM): does not accelerate the kinetics of the closing process; also recorded: absence of deactivation process acceleration
difference in efficiency at a total block of current between CmERG1 and CnERG1 (hERG1 channel [2]; CmERG1 versus CnERG1): 10%
activity on hERG1 channels, in words (venom fraction screening / purified peptide) (hERG1 channel [2]): active on hERG1
activity on hERG1 channels, in words (venom fraction screening / purified peptide) (hERG1 channel [2]; listed as peptide corresponding to 4792.88 Da): confirmed the activity of this peptide against hERG1
slope of voltage dependence of inactivation in presence of toxin (hERG1 channel [3]; Boltzmann fit, control 28.2 ± 2.2, mean ± SE): 29 ± 1.5
V1/2 for inactivation in presence of toxin (hERG1 channel [3]; Boltzmann fit, control −77.6 ± 3.6 mV, mean ± SE): −79 ± 1.3 mV
effect on voltage dependence of steady state inactivation, in words (hERG1 channel [3]; paired sample t-test at 0.05 level): does not induce significant changes on the voltage dependence of inactivation; also recorded: no modification of the steady state inactivation
V1/2 for activation (potential of half activation) in presence of toxin (hERG1 channel [4]; Boltzmann fit, control −37.5 ± 1.4 mV, mean ± SE, n = 4 or n = 5, paired t-test): -34.8 ± 0.8 mV
effect on total current / voltage dependence of activation, in words (hERG1 channel [4]; n = 4, paired sample t-test at 0.05 level): reduces the total current with a tendency to modify the potential of half activation

Margatoxin
inhibition of Kv1.3, in words (Kv1.3 channel): potent and specific blocker
inhibition of Kv1.3, in words (Kv1.3 channel; listed as Margatoxin 1): potent inhibitor
inhibition of Kv1.1, in words (Kv1.1 channel): block also Kv1.1
inhibition of Kv1.2, in words (Kv1.2 channel): block also Kv1.1 and Kv 1.2
